Data from PubChem BioAssay (NCI).
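Five concentrations, 48 hours, 96-well plates. GI50: concentration for 50% inhibition of growth. The concentration for full growth arrest is given as TGI.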

Key:
Assay in all cases: NCI anticancer screen, dose series, 48 h
HS 578T breast = tested on: HS 578T breast
DU-145 prostate = tested on: DU-145 prostate
COLO 205 colon = tested on: COLO 205 colon
OVCAR-5 ovarian = tested on: OVCAR-5 ovarian
NCI/ADR-RES ovarian = tested on: NCI/ADR-RES ovarian
OVCAR-3 ovarian = tested on: OVCAR-3 ovarian
HCT-15 colon = tested on: HCT-15 colon
M14 melanoma = tested on: M14 melanoma
UO-31 renal = tested on: UO-31 renal
MCF7 breast = tested on: MCF7 breast
SNB-19 CNS = tested on: SNB-19 CNS
SF-539 CNS = tested on: SF-539 CNS
LOX IMVI melanoma = tested on: LOX IMVI melanoma
MDA-MB-231 breast = tested on: MDA-MB-231 breast
HCC-2998 colon = tested on: HCC-2998 colon
OVCAR-4 ovarian = tested on: OVCAR-4 ovarian
SF-268 CNS = tested on: SF-268 CNS
TK-10 renal = tested on: TK-10 renal
SF-295 CNS = tested on: SF-295 CNS
SW-620 colon = tested on: SW-620 colon
K-562 leukemia = tested on: K-562 leukemia
RPMI-8226 leukemia = tested on: RPMI-8226 leukemia
SK-OV-3 ovarian = tested on: SK-OV-3 ovarian
U251 CNS = tested on: U251 CNS
T-47D breast = tested on: T-47D breast
A549 NSCLC = tested on: A549 NSCLC
KM12 colon = tested on: KM12 colon
NCI-H460 lung = tested on: NCI-H460 lung
UACC-62 melanoma = tested on: UACC-62 melanoma
SK-MEL-28 melanoma = tested on: SK-MEL-28 melanoma
RXF 393 renal = tested on: RXF 393 renal
NCI-H23 lung = tested on: NCI-H23 lung
SK-MEL-5 melanoma = tested on: SK-MEL-5 melanoma
BT-549 breast = tested on: BT-549 breast
UACC-257 melanoma = tested on: UACC-257 melanoma
HOP-62 NSCLC = tested on: HOP-62 NSCLC
CAKI-1 renal = tested on: CAKI-1 renal
HOP-92 NSCLC = tested on: HOP-92 NSCLC
786-0 renal = tested on: 786-0 renal
HL-60(TB) leukemia = tested on: HL-60(TB) leukemia
SN12C renal = tested on: SN12C renal
MDA-MB-435 = tested on: MDA-MB-435
SK-MEL-2 melanoma = tested on: SK-MEL-2 melanoma
SR leukemia = tested on: SR leukemia
OVCAR-8 ovarian = tested on: OVCAR-8 ovarian
EKVX NSCLC = tested on: EKVX NSCLC
PC-3 prostate = tested on: PC-3 prostate
ACHN renal = tested on: ACHN renal

## Cn1c(-c2c(N)n(Cc3ccc(F)cc3)c3nc(C#N)c(C#N)nc23)nc2ccccc21
HS 578T breast
  GI50: 4.67 µM
  TGI: 26.7 µM
DU-145 prostate
  GI50: 3.02 µM
  TGI: 21.6 µM
COLO 205 colon
  GI50: 1.52 µM
  TGI: 6.26 µM
OVCAR-5 ovarian
  GI50: 8.55 µM
  TGI: > 50 µM
NCI/ADR-RES ovarian
  GI50: 7.56 µM
  TGI: 22.5 µM
OVCAR-3 ovarian
  GI50: 0.842 µM
  TGI: 2.6 µM
HCT-15 colon
  GI50: 2.05 µM
  TGI: 13.6 µM
M14 melanoma
  GI50: 3.48 µM
  TGI: > 50 µM
UO-31 renal
  GI50: 2.51 µM
  TGI: > 50 µM
MCF7 breast
  GI50: 2.19 µM
  TGI: > 50 µM
SNB-19 CNS
  GI50: 12 µM
  TGI: > 50 µM
SF-539 CNS
  GI50: 13.2 µM
  TGI: > 50 µM
LOX IMVI melanoma
  GI50: 0.739 µM
  TGI: 2.18 µM
MDA-MB-231 breast
  GI50: 5.17 µM
  TGI: 38.5 µM
HCC-2998 colon
  GI50: 1.35 µM
  TGI: 3.05 µM
OVCAR-4 ovarian
  GI50: 2.3 µM
  TGI: > 50 µM
SF-268 CNS
  GI50: 5.47 µM
  TGI: > 50 µM
TK-10 renal
  GI50: 1.09 µM
  TGI: 3.77 µM
SF-295 CNS
  GI50: 7.68 µM
  TGI: 32.5 µM
SW-620 colon
  GI50: 2.47 µM
  TGI: 21 µM
K-562 leukemia
  GI50: 5.19 µM
  TGI: > 50 µM
RPMI-8226 leukemia
  GI50: 1.35 µM
  TGI: 7.17 µM
SK-OV-3 ovarian
  GI50: 11 µM
  TGI: 33.8 µM
U251 CNS
  GI50: 3.18 µM
  TGI: 15 µM
T-47D breast
  GI50: 1.08 µM
  TGI: 4.61 µM
A549 NSCLC
  GI50: 5.48 µM
  TGI: > 50 µM
KM12 colon
  GI50: 2.19 µM
  TGI: 11.2 µM
NCI-H460 lung
  GI50: 2.21 µM
  TGI: 25.2 µM
UACC-62 melanoma
  GI50: 3.37 µM
  TGI: 26.6 µM
SK-MEL-28 melanoma
  GI50: 5.65 µM
  TGI: 29 µM
RXF 393 renal
  GI50: 1.7 µM
  TGI: 4.86 µM
NCI-H23 lung
  GI50: 1.3 µM
  TGI: 4.08 µM
SK-MEL-5 melanoma
  GI50: 2.97 µM
  TGI: > 50 µM
BT-549 breast
  GI50: 2.79 µM
  TGI: 18.2 µM
UACC-257 melanoma
  GI50: 4.51 µM
  TGI: > 50 µM
HOP-62 NSCLC
  GI50: 2.32 µM
  TGI: 22.5 µM
CAKI-1 renal
  GI50: 1.36 µM
  TGI: 4.43 µM
HOP-92 NSCLC
  GI50: 1.63 µM
  TGI: 18.4 µM
786-0 renal
  GI50: 0.918 µM
  TGI: 3.59 µM
HL-60(TB) leukemia
  GI50: 3.76 µM
  TGI: > 50 µM
SN12C renal
  GI50: 2.09 µM
  TGI: 20 µM
MDA-MB-435
  GI50: 1.83 µM
  TGI: 13.3 µM
SK-MEL-2 melanoma
  GI50: 3.62 µM
  TGI: 34.9 µM
SR leukemia
  GI50: 1.01 µM
  TGI: > 50 µM
OVCAR-8 ovarian
  GI50: 1.63 µM
  TGI: 11.8 µM
EKVX NSCLC
  GI50: 4.16 µM
  TGI: > 50 µM
PC-3 prostate
  GI50: 2.61 µM
  TGI: > 50 µM
ACHN renal
  GI50: 0.829 µM
  TGI: 2.43 µM
